Measured values published in ChEMBL document CHEMBL1671791, “Electron paramagnetic resonance (EPR) study of spin-labeled camptothecin derivatives: a different look of the ternary complex” (J Med Chem, 2011).
Calls of active or inactive are those of the source. No cut-off for these calls is given here.

Key:
[1] = target: T1, DNA topoisomerase 1 (Homo sapiens) (UniProt P11387); test: Reversible inhibition of human recombinant DNA topoisomerase 1-mediated DNA cleavage at 0.1 to 100 uM after 20 mins
T1 sequence (whole entry): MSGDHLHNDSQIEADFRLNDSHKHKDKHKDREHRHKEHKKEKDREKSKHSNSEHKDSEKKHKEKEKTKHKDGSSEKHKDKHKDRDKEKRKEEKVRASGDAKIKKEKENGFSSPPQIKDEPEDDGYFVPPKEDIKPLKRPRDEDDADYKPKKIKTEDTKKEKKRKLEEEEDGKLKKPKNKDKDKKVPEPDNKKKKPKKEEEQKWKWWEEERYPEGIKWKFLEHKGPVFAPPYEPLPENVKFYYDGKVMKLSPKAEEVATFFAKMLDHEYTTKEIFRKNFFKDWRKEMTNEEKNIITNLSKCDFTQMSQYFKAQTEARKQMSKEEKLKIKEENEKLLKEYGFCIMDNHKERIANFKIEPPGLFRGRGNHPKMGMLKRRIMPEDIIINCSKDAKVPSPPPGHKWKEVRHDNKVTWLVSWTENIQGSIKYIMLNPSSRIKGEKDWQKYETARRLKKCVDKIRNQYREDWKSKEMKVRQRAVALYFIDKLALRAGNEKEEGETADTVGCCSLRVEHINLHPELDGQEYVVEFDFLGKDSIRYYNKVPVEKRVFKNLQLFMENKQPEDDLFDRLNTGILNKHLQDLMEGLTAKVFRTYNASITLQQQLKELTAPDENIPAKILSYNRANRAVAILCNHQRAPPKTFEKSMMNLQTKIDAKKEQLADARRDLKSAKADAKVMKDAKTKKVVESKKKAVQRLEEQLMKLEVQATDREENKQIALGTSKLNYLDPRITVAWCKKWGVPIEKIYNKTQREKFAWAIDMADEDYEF

[2] = target: T1, DNA topoisomerase 1 (Homo sapiens); test: Inhibition of human recombinant DNA topoisomerase 1-mediated DNA cleavage at 0.1 to 100 uM after 20 mins
[3] = target: T1, DNA topoisomerase 1 (Homo sapiens); test: Binding affinity to human recombinant DNA topoisomerase 1 at 20 uM by electron paramagnetic resonance analysis

SMILES: CC[C@@]1(O)C(=O)OCc2c1cc1n(c2=O)Cc2c-1nc1ccccc1c2/C=N/C1CC(C)(C)N([O])C(C)(C)C1
- inhibition [1]: Active
- inhibition [2]: Active
- Activity [3]: Active

SMILES: CC[C@@]1(O)C(=O)OCc2c1cc1n(c2=O)Cc2c-1nc1ccccc1c2C(=O)NC1CC(C)(C)N([O])C(C)(C)C1
- inhibition [2]: Active
